Source: ChEMBL document CHEMBL1201862, “PubChem BioAssay data set” (2004)
Calls of active or inactive are those of the source. Unless noted, the rule behind the calls is not given here.

Experiments:
[1] = target: Luciferin 4-monooxygenase (Photinus pyralis, UniProt P08659); assay: inhibition of purified Photinus pyralis luciferase – biochemical, luminescence, dose response (AID 1891)
[2] = Luminescence Cell-Based Dose Response Follow up to Identify Inhibitors of Platelet Dense Granule Release. [Related pubchem assays (depositor defined):AID1663, AID1678, AID1889, AID2519]; type: functional
[3] = PAR1 agonist-induced platelet activation inhibition – cell-based, fluorescence, flow cytometry, human platelets, dose response (AID 2511); type: functional
[4] = SFLLRN-induced P-Selectin Platelet Surface Expression Measured in Cell-Based System Using Flow Cytometry - 2016-03_Inhibitor_Dose_DryPowder_Activity_Set3. [Related pubchem assays (depositor defined):AID1678]; type: functional
[5] = blockers of SFLLRN-triggered platelet ATP secretion – cell-based, human platelets, luminescence, dry powder, dose response (AID 493100); type: functional
[6] = Luminescence Cell-Based Dose Confirmation HTS to Identify Inhibitors of Platelet Dense Granule Release. [Related pubchem assays: 1663 (Primary HTS), 1678 (Summary of Project)]; type: functional
INS1 = assay: INS-1E survival protection against cytokine death – cell-based, luminescence, retest, dose response (AID 449756); type: functional; conditions: Rattus norvegicus;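 also: cell death triggered by IL-1 beta plus TNF-alpha plus IFN-gamma mixture; protective hits raise ATP signal compared with cytokine alone wells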
[7] = HEK-293T viability loss after treatment – luminescence, T-cell screen hits, cytotoxicity control for TCR NF-kB inhibitor project, dose response (AID 489026); type: functional, cell-based;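 also: cells exposed to compound about 14 hours before the viability readout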
[8] = target: T1, Heat shock factor protein 1 (Mus musculus, UniProt P38532); assay: enhancement of HSF1-driven luciferase signal – cell-based, NIH3T3, luminescence, dose retest, confirmation (AID 435004); type: functional;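 also: stress induced by proteasome inhibitor MG132 added 30 min after compound; luciferase reporter driven by HSF1 response element in NIH3T3 cells; actives raise luminescence as potentiators of the MG132 stress response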
T1 sequence (P38532 whole entry): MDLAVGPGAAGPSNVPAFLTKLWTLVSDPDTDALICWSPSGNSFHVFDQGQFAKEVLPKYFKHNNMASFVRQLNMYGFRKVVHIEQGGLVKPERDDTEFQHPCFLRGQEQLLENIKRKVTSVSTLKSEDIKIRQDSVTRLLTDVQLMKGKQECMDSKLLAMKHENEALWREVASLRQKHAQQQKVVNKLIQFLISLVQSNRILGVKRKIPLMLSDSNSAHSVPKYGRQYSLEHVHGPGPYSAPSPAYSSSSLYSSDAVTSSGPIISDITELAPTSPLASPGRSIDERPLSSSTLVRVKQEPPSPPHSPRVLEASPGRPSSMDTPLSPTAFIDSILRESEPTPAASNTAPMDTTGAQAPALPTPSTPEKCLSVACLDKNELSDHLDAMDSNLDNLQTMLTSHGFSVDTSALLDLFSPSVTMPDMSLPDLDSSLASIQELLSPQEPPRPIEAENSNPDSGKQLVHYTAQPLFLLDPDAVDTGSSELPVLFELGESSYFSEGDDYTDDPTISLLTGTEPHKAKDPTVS

[9] = target: Heat shock protein HSP 90-alpha (Homo sapiens, UniProt P07900); type: functional, organism-based
[10] = target: Dual specificity protein phosphatase 3 (Homo sapiens, UniProt P51452); assay: SAR VHR1 Fluorescent Assay for In Vitro dose response studies Set 3. [Related pubchem assays (depositor defined):AID1654, AID1661, AID1878]; type: functional
[11] = target: 26S proteasome non-ATPase regulatory subunit 14 (Homo sapiens, UniProt O00487); assay: inhibition of proteasome subunit RPN11 – biochemical, fluorescence polarization, uHTS hits, confirmation (AID 602368); type: functional
Prothrombin = Prothrombin (Bos taurus, UniProt P00735); assay: thrombin protease inhibitors – biochemical, fluorescence polarization, uHTS hits, dose response (AID 602369); type: functional
[12] = target: 72 kDa type IV collagenase (Homo sapiens, UniProt P08253); assay: Dose Response validation of uHTS RPN11 inhibitor hits using a MMP-2 Fluorescence assay.; type: functional
[13] = viability loss of HMLE_sh_eGFP cells – cell-based, luminescence, counter-screen for HMLE_sh_ECad selective toxicity project, dose response (AID 463074); type: functional, Homo sapiens;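 also: HMLE human mammary epithelial cells expressing control shRNA against eGFP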
[14] = Luminescence Cell-Based Dose Retest to Confirm Inhibitors of Cancer Stem Cells. [Related pubchem assays (depositor defined):AID2717, AID2721]; type: functional; conditions: Homo sapiens
Cytochrome P450 3A4 = Cytochrome P450 3A4 (Homo sapiens, UniProt P08684);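 also: CYP3A4 tested as one member of a cytochrome P450 panel screen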
MDCK [15] = assay: antiviral activity against H1N1 influenza, dose response, cell-based, strain KY180 (AID 540254); type: functional; conditions: Canis lupus familiaris
MDCK [16] = assay: MDCK cell cytotoxicity, dose response, cytotoxicity control (AID 540296); type: functional; conditions: Canis lupus familiaris

Chain of Luciferin 4-monooxygenase (P08659 whole entry): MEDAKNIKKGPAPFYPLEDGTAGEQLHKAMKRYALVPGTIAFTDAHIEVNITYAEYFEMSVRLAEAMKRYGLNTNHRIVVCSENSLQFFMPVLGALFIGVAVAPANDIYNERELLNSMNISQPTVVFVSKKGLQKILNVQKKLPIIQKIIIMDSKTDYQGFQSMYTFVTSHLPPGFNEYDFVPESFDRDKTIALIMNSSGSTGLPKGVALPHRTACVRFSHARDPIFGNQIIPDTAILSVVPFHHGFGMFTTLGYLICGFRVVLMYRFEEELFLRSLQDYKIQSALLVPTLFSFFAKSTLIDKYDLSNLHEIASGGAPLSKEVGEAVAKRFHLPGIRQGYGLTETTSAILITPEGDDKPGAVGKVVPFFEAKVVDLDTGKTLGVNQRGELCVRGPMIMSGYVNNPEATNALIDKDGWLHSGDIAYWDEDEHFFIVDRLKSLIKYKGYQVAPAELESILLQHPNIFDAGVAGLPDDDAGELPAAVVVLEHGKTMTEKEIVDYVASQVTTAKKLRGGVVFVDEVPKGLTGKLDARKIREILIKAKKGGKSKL
Chain of Dual specificity protein phosphatase 3 (P51452 whole entry): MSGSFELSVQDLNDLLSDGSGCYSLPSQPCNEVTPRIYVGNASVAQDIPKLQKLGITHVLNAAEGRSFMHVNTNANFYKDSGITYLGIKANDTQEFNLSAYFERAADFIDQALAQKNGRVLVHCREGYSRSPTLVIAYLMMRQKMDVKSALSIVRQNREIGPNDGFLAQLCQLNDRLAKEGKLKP
Chain of Cytochrome P450 3A4 (P08684 whole entry): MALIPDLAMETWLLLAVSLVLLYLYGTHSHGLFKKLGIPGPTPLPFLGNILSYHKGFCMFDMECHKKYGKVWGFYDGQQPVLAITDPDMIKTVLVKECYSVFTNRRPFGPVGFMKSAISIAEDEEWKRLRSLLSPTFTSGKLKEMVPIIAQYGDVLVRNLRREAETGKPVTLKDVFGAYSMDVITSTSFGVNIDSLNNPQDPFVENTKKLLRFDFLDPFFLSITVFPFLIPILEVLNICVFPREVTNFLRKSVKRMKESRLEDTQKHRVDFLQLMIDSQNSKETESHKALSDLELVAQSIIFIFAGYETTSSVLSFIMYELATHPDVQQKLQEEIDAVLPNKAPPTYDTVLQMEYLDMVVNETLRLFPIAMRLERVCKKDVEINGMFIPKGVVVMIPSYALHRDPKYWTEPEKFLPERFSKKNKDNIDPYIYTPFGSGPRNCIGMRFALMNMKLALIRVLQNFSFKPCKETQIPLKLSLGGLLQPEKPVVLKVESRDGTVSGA
Chain of 72 kDa type IV collagenase (P08253 whole entry): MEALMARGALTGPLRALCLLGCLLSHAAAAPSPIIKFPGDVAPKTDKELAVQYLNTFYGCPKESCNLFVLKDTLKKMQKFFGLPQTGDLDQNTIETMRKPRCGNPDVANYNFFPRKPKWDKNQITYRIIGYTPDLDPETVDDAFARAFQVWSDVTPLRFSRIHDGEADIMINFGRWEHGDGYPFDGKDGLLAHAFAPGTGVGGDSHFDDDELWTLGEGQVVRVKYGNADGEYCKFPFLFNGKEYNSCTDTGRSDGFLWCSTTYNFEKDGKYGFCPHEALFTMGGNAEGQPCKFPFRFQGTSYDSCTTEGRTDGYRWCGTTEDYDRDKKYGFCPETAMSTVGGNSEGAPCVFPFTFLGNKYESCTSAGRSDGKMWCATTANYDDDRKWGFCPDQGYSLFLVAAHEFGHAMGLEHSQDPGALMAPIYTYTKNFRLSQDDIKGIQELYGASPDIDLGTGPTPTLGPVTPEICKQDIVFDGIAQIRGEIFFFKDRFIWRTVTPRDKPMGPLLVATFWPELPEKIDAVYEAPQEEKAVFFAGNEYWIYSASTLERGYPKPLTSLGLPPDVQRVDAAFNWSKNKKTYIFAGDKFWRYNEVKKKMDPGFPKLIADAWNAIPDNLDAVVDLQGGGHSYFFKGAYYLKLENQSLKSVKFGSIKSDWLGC
Chain of 26S proteasome non-ATPase regulatory subunit 14 (O00487 whole entry): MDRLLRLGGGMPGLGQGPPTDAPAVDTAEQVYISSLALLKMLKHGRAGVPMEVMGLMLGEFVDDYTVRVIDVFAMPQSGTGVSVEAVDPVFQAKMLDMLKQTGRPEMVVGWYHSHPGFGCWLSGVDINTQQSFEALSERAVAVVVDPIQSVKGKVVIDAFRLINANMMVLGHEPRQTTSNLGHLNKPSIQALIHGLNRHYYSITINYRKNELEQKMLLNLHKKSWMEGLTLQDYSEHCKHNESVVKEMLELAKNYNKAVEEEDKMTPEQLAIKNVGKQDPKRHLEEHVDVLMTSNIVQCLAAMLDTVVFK

## CCC(=O)Nc1cccc(NC(=O)c2ccccc2Br)c1
[1]
  EC50: > 112 µM (not active)
[2]
  EC50: 14 µM (active)
[3]
  EC50: < 1 µM (active)
[4]
  AC50: < 3.12 µM (active)
[5]
  AC50: 21.2 µM (active)
[6]
  EC50: 4.32 µM (active)

## Cc1cccc(N=Nc2ccc(O)c3ncccc23)c1
INS1
  AC50: 1.78 µM (active)
[7]
  IC50: > 80 µM (inactive)
[8]
  EC50: 4.58 µM (active)
[9]
  AC50: 3.91 µM (active)

## Cc1c(NC(=O)c2cc(-n3cnnc3)ccc2Cl)cccc1-c1nc2ccccc2s1
[10]
  IC50: 18.3 µM (active)

## O=C1c2cccc3cccc(c23)C(=O)N1c1ccc2ncccc2c1
[11]
  IC50: 23.9 µM (active)
Prothrombin
  IC50: 82.1 µM (active)
[12]
  IC50: 23 µM (active)

## O=C(COc1ccccc1Cl)Nc1cc(Cl)ccc1Oc1ccccc1
[13]
  AC50: 120 µM (active)
[14]
  AC50: 3.01 µM (active)
Cytochrome P450 3A4
  AC50: 15.8 µM (inconclusive)

## CC(c1ccccn1)N(CCN(C)C)C(S)=Nc1cccc(F)c1 (centres undefined)
MDCK [15]
  IC50: 64.7 µM (active)
MDCK [16]
  CC50: > 40 µM (active)
